From ChEMBL document CHEMBL5584243, “Discovery of JNJ-74856665: A Novel Isoquinolinone DHODH Inhibitor for the Treatment of AML” (J Med Chem, 2024) come the findings set out here.

≈ marks a conversion by molar mass, not a printed value.

Data set [1] addresses T1, Aryl hydrocarbon receptor (Homo sapiens, UniProt P35869).
T1 sequence (P35869 whole entry): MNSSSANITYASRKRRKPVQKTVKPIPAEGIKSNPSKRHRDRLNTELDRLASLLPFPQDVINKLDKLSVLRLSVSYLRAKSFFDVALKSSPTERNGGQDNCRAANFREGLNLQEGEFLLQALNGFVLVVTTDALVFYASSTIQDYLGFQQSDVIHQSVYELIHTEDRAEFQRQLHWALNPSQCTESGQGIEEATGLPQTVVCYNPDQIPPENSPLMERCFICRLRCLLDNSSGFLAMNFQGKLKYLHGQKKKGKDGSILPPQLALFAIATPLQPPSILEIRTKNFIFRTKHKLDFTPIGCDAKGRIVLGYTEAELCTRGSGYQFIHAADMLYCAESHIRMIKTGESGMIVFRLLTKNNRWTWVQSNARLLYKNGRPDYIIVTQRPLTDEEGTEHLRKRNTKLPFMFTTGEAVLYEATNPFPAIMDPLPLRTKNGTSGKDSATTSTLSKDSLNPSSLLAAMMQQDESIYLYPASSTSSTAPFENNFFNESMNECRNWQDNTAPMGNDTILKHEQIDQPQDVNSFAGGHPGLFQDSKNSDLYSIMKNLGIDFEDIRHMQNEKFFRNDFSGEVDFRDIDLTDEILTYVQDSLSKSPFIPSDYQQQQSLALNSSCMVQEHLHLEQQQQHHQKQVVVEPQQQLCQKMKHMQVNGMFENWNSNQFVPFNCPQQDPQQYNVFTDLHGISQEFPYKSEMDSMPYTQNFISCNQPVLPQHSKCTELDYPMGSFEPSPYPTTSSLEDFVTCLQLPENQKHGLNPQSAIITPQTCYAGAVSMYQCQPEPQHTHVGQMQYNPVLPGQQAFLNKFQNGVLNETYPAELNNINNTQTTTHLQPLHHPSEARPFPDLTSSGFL
As to the kind of experiment: Activation of AhR (unknown origin) at 1 to 10 uM. The settings on record: dose 1-10 µM.

Data set [2] can be described thus: Passive permeability across apical to basolateral side in dog MDCK-MDR1 cells. It counts as ADME, cell-based, Canis lupus familiaris.
The target in data set [3] is Kappa-type opioid receptor (Homo sapiens, UniProt P41145). As to the kind of experiment: Inhibition of KOP (unknown origin) at 10 uM relative to control.
Kappa-type opioid receptor, sequence (P41145 whole entry): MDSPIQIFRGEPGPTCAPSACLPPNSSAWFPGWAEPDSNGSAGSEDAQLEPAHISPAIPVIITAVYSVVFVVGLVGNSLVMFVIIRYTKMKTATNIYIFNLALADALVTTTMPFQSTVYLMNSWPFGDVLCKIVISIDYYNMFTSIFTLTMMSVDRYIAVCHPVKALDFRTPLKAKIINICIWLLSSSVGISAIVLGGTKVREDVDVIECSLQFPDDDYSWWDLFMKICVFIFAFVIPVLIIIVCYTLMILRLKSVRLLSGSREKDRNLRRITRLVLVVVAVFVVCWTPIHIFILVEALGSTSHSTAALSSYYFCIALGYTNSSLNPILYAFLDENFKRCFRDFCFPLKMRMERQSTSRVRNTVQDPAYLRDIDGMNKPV
Data set [4] can be described thus: Half life in C57BL mouse at 2 mg/kg,iv measured upto 24 hrs by LC-MS/MS analysis. It counts as ADME, organism-based. Conditions: in vivo; call rule not given here.
Data set [5] has as its system MOLM-13. Put plainly: Antitumor activity against human MOLM-13 cells xenografted in NSG mouse assessed as tumor growth inhibition at 0.062 mg/kg,po administrated daily for 10 days relative to control. The format is functional. Conditions: MOLM-13, 240 h, time 10 day, read-out: TGI.
The target in data set [6] is Serine/threonine-protein kinase WNK2 (Homo sapiens) (UniProt Q9Y3S1). Put plainly: Inhibition of WNK2 (unknown origin) at 1 uM relative to control.
Serine/threonine-protein kinase WNK2 (Homo sapiens), sequence (Q9Y3S1 whole entry): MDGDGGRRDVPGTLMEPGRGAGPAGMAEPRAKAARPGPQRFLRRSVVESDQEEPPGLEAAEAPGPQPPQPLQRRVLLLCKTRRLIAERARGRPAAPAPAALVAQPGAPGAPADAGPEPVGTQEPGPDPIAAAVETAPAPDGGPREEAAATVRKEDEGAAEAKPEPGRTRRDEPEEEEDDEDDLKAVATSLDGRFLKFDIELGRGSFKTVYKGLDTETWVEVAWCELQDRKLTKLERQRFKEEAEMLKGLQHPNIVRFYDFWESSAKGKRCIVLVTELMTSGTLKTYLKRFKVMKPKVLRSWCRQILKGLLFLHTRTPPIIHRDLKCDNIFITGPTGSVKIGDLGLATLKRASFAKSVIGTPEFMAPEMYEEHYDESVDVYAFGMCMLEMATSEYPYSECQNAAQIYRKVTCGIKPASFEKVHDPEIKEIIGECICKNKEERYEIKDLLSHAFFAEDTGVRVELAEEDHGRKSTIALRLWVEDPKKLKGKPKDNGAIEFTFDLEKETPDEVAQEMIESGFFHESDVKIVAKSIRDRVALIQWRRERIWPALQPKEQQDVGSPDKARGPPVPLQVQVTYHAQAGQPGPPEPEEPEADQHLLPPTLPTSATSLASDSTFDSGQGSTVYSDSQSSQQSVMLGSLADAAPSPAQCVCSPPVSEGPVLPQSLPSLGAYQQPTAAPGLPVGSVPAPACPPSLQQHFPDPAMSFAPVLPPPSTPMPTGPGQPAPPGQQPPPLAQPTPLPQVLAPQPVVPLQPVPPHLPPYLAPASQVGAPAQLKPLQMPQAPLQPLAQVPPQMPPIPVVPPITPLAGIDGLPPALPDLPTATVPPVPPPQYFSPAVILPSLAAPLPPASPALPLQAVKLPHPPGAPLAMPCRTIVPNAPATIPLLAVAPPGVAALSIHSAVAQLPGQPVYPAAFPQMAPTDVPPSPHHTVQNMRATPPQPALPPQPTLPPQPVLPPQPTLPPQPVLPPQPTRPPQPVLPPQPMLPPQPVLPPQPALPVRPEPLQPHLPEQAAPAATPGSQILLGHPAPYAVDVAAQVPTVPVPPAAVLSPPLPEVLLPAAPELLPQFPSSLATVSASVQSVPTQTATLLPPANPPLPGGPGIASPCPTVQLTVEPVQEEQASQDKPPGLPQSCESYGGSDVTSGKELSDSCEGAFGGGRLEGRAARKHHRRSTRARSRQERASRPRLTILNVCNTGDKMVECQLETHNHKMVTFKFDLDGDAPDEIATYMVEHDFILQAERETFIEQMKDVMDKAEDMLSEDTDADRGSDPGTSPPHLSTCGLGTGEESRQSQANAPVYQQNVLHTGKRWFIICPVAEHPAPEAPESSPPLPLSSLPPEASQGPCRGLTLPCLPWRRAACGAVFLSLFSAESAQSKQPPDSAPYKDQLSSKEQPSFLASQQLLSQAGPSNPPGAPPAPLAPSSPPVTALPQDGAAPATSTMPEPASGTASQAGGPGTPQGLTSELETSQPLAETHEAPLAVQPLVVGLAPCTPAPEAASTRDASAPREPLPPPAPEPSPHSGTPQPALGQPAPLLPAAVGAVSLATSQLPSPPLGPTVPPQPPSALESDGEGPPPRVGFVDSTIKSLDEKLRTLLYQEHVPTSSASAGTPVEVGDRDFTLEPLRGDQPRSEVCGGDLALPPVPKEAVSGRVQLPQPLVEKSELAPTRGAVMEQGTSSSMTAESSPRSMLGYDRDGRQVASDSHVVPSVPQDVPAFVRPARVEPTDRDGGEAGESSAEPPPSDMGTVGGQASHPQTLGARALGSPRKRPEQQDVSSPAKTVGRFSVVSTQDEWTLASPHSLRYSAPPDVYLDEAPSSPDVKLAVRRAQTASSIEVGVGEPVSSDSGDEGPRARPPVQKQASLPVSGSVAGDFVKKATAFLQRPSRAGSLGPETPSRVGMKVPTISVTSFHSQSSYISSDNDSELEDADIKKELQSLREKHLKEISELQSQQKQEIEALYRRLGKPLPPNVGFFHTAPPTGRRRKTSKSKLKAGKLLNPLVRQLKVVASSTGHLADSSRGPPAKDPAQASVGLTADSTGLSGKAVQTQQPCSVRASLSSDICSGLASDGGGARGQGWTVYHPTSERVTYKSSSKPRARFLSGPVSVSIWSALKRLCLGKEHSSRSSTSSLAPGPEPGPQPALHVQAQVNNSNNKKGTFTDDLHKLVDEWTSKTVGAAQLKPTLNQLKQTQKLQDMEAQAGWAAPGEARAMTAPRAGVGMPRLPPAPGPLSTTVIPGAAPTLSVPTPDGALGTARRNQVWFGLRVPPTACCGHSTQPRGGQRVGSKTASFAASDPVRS
Data set [7] is described as follows: Cmax in cynomolgus monkey at 10 mg/kg,po. The format is ADME, organism-based, Macaca fascicularis. Conditions: in vivo.
Data set [8] can be described thus: Inhibition of Calcium ion channel (unknown origin). The arrangement: species or system Homo sapiens.
The nature of data set [9]: Lipophilicity, logD of compound. The settings on record: octanol/water. It counts as physicochemical.
A short description of data set [10]: Metabolic stability in mouse liver microsomes assessed as half life incubated upto 60 mins in presence of NADPH by LC-MS/MS analysis. It counts as ADME, Microsome.
For data set [11], the target named is T2, CYP3A4 (Homo sapiens, UniProt P08684). As to the kind of experiment: Induction of CYP3A4 in cryopreserved human hepatocytes using midazolam as substrate assessed as fold change at 10 uM relative to control. The format is ADME, cell-based, Hepatocyte. Conditions: probe midazolam, read-out: FC.
T2 sequence (P08684 whole entry): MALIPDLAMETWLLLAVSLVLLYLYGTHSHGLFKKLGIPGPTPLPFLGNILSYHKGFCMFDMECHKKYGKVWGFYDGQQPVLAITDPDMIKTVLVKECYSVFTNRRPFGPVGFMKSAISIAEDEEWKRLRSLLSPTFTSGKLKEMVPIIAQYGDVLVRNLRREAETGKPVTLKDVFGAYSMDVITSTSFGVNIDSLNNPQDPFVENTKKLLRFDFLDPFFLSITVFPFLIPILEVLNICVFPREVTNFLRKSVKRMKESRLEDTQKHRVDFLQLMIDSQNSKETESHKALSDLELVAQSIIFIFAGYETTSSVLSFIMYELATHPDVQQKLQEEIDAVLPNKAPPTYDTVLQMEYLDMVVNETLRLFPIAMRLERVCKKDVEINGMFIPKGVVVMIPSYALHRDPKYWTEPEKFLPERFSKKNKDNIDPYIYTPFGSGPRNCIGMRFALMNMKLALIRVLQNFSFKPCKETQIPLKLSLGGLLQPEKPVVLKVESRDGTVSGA
Data set [12] relates to MOLM-13. Put plainly: Antitumor activity against human MOLM-13 cells xenografted in NSG mouse assessed as tumor growth inhibition at 0.031 mg/kg,po administrated daily for 10 days relative to control. It counts as functional. Conditions: MOLM-13, 240 h, time 10 day, read-out: TGI.
Data set [13] is described as follows: Oral bioavailability in C57BL mouse at 10 mg/kg measured upto 24 hrs by LC-MS/MS analysis. The format is ADME, organism-based. Conditions: in vivo.
The target in data set [14] is T2, CYP3A4. Put plainly: Induction of CYP3A4 in cryopreserved human hepatocytes using midazolam as substrate assessed as fold change at 1 uM relative to control. The format is ADME, cell-based, Hepatocyte. Conditions: probe midazolam, read-out: FC.
A short description of data set [15]: Metabolic stability in monkey liver microsomes assessed as half life incubated upto 60 mins in presence of NADPH by LC-MS/MS analysis. It counts as ADME, Macaca mulatta, Microsome. Conditions: rhesus monkey.
Another data set concerns the target T3, PXR (NR1I2) (Homo sapiens, UniProt O75469).
T3 sequence (O75469 whole entry): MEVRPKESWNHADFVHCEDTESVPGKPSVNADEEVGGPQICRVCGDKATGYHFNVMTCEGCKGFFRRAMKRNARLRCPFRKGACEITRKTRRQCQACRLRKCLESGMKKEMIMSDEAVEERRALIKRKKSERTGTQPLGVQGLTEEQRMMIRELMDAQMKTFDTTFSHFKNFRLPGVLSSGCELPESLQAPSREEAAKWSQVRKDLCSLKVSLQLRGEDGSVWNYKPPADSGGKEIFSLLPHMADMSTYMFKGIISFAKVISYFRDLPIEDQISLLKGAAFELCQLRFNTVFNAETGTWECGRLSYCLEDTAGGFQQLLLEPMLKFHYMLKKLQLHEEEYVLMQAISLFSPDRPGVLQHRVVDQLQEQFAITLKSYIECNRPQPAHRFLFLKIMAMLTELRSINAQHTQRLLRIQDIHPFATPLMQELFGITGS
Put plainly: Activation of PXR (unknown origin) assessed as fold change at 1 uM relative to control. The format is ADME. The settings on record: read-out: FC.

The nature of data set [16]: Half life in dog hepatocyte. The format is ADME, cell-based, Canis lupus familiaris. The settings on record: hepatocytes.
Data set [17] concerns the target Dihydroorotate dehydrogenase (quinone), mitochondrial (Homo sapiens, UniProt Q02127). As to the kind of experiment: Binding affinity to recombinant human DHODH assessed as half life.
A short description of data set [18]: Equilibrium solubility of compound in FaSSIF at pH 6.5 using crystalline form incubated for 2 to 5 days by HPLC analysis. Conditions: time 2-5 day. It counts as ADME.
Data set [19] in a line: Volume of distribution at steady state in C57BL mouse at 2 mg/kg,iv measured upto 24 hrs by LC-MS/MS analysis. It counts as ADME, organism-based. Conditions: in vivo, read-out: Vdss.

Dihydroorotate dehydrogenase (quinone), mitochondrial, sequence (Q02127 whole entry): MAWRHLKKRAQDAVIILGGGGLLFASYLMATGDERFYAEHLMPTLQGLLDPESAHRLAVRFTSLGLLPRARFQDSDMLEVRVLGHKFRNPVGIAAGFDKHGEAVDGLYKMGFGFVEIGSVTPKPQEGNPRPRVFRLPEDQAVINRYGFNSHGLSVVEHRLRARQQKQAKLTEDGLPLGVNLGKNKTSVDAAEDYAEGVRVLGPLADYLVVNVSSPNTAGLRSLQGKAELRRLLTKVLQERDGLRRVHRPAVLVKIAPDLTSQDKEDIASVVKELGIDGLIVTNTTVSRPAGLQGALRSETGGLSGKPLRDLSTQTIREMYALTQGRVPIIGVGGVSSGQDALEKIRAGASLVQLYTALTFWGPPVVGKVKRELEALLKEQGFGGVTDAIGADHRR

In the case of `CCn1c(CO)nn(-c2cc3c(C(C)C)cn(-c4ccccc4C)c(=O)c3cc2F)c1=O`, the Activity result in data set [1] is listed as “Not Active”. Also, the Papp A→B in data set [2] came out at 33.1 ×10⁻⁶ cm/s. The inhibition worked out at 96% in [3] and 51% in data set [6]. For the same compound, the half-life in data set [4] is 5.7 h; in data set [10] it was above 3 h; in data set [15] it was above 3 h; in data set [16], 0.242 h. Besides, the inhibition in vivo at 0.062 mg/kg in the data set on MOLM-13 [5] stood at 75%. The same compound gave a Cmax in data set [7] of 5800 ng/mL. Also, the IC50 in data set [8] was above 10 µM. This compound had a logD in [9] of 2.7. The fold induction at 10 µM on CYP3A4 [11] came out at 2.5. Besides, the inhibition in vivo at 0.031 mg/kg in the data set on MOLM-13 [12] came out at 42%. The bioavailability in [13] was found to be 125%. In addition, the fold induction at 1 µM at CYP3A4 [14] is below 2; on PXR (NR1I2) it was 3.2. Further, the T1/2 in [17] was found to be 0.328 h. The same compound had a solubility (thermodynamic) in data set [18] of 67 µg/mL (≈ 153 µM). Further, the Vd in data set [19] was 1.6 L/kg.
